Columns and labels:
porkers = test: Effect on the production performance of porkers (breeding test); format: in vivo; conditions: 1000 ppm in basal diet, 28 days; for FCR (feed conversion ratio): ADFI/ADG
Source text: 90 head of “duroc×landrace×Large Yorkshire” three-way cross lean-type pigs with similar weights having an average weight of 80 kg were randomly divided into 3 treatment groups, each group having 3 repetitions, and each repetition having 10 pigs, half male and half female. The pigsty and appliances were sterilized before testing. During the test, the piglets were fed in separate pigpens under the same feeding and management condition in the same pigsty. During the test, the test pigs ate and drank freely, and were fed twice a day. Each test group is a control group (Group I) and test groups II to III, respectively. Wherein, the control group was fed with a basal diet only, and the test groups II to III were fed with diets that were supplemented with 1000 ppm of different γ-quaternary ammonium butyrate compounds on the basis of the basal diet, specifically as shown in Table 1.
During the entire feeding process, no additional antioxidant components or growth promoters were added for each test group. The test period is 28 days, with each repetition as a unit, the pigs were weighed on the 28th day of the test after not stopping water but stopping feeding for 12 hours to calculate the average daily feed intake (ADFI, g/d*head), average daily gain (ADG, g/d*head) and feed conversion ratio (FCR) for each test group. The calculation formulas are as follows: Average daily feed intake=(total amount of feeds-remaining amount of feeds)/(test days×number of pigs per repetition); Average daily gain=(average weight at the end of the test-average weight at the beginning of the test)/test days; Feed conversion ratio=average daily feed intake/average daily gain.

broilers = test: Effect on the production performance of broilers (breeding test); format: in vivo, Chinese three-yellow-feather broilers; conditions: 600 ppm in basal diet, 20 days; for FCR (feed conversion ratio): ADFI/ADG
Procedure: A single-factor random design was adopted for the test. 360 of one-day-old Chinese three-yellow-feather broilers with similar weights having an average weight of 50 g were randomly divided into 3 treatment groups, each group having 6 repetitions, half male and half female, and each repetition having 20 Chinese three-yellow-feather broilers. The henhouse and appliances were sterilized before testing. During the test, the cage rearing was carried out in the same henhouse under the same feeding and management condition. The basal diet is mainly a corn-soybean meal, and no additional antioxidant components or growth promoters were added during the entire feeding process. Each test group is a control group (Group I) and test groups II to III, respectively. Wherein, the control group was fed with the basal diet only, and the test groups II to III were fed with basal diets that were added with 600 ppm of different γ-quaternary ammonium butyrate compounds.
The test period was 20 days in total. The test broilers were free to drink and eat, and were fed twice a day. With each repetition as a unit, the test broilers were weighed at the age of 21 days (stopping feeding for 12 hours, without stopping water) to count the consumption of the test broilers, calculate the average daily feed intake (ADFI, g/d*number of broilers), average daily gain (ADG, g/d*number of broilers) and feed conversion ratio (FCR) of each group of test broilers. The calculation formulas are as follows: Feed conversion ratio (FCR)=average daily feed intake/average daily gain.

tilapia = conditions: L-carnitine in basal diet, compared with the blank Control group; cited from earlier work

Row | SMILES | ADFI (average daily feed intake) (porkers) [g/d * head] | ADG (average daily gain) (porkers) [g/d * head] | FCR (feed conversion ratio) (porkers) | ADFI (average daily feed intake) (broilers) | ADG (average daily gain) (broilers) | FCR (feed conversion ratio) (broilers) | weight gain rate reduced (tilapia) [%]
1 | C[N+](C)(C)C[C@H](O)CC(=O)OCc1ccccc1 [benzyl L-carnitine chloride] | 2560 | 790 | 3.24 | 32.18 g/d * number of broilers | 13.46 g/d * number of broilers | 2.39 | 
2 | C[N+](C)(C)C[C@H](O)CC(=O)[O-] [L-carnitine] |  |  |  |  |  |  | 1.2
3 | CCOC(=O)C[C@@H](O)C[N+](C)(C)C [ethyl L-carnitine bromide, ethyl (R)-3-hydroxy-4-(trimethylammonium) butyrate bromide] | 2624 | 788 | 3.33 | 31.34 g/d * number of broilers | 13.00 g/d * number of broilers | 2.41 | 

Source: patent US12178224B1, “Use of gamma-quaternary ammonium butyrate compound in preparation of an animal feed additive” (ANIPHA TECHNOLOGIES PTY LTD, priority 2019, dated 2024)
